Reference: PubChem BioAssay AID330 (DTP/NCI, 2004)
Values joined by “and” are separate entries in the source; they are usually repeats but may differ in a detail not shown here. Equal values may be shown once. Toxic doses and inconclusive results are not listed. How the source made its calls: active means survival T/C of 150% or more; inactive means T/C below 125% in these data.

System: P388 leukemia ip, CD2F1 mice, survival T/C
Assay: NCI In Vivo Anticancer Drug Screen. Data for tumor model P388 Leukemia (intraperitoneal) in CD2F1 (CDF1) mice
Conditions: endpoint: median survival time, higher = longer survival
Outline: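 Mice carrying the transplanted tumor received test compound or vehicle. Survival was recorded in each group, and the value is the treated-group measurement divided by that of the vehicle-treated control group.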

[1] = dose: 50.0 mg/kg/injection, schedule: Q01DX009 (ip), vehicle: saline
[2] = dose: 100.0 mg/kg/injection, schedule: Q01DX009 (ip), vehicle: saline
[3] = dose: 200.0 mg/kg/injection, schedule: Q01DX009 (ip), vehicle: saline
[4] = dose: 50.0 mg/kg/injection, schedule: Q01DX005 (ip), vehicle: saline with Tween-80
[5] = dose: 100.0 mg/kg/injection, schedule: Q01DX005 (ip), vehicle: saline with Tween-80
[6] = dose: 60.0 mg/kg/injection, schedule: Q01DX005 (ip), vehicle: Klucel + Tween-80
[7] = dose: 120.0 mg/kg/injection, schedule: Q01DX005 (ip), vehicle: Klucel + Tween-80
[8] = dose: 60.0 mg/kg/injection, schedule: Q01DX005 (ip), vehicle: Klucel (hydroxypropylcellulose) (HPC)
[9] = dose: 120.0 mg/kg/injection, schedule: Q01DX005 (ip), vehicle: Klucel (hydroxypropylcellulose) (HPC)
[10] = dose: 240.0 mg/kg/injection, schedule: Q01DX005 (ip), vehicle: Klucel (hydroxypropylcellulose) (HPC)
[11] = dose: 100.0 mg/kg/injection, schedule: Q04DX003 (ip), vehicle: saline with Tween-80
[12] = dose: 50.0 mg/kg/injection, schedule: Q01DX005 (ip), vehicle: saline
[13] = dose: 100.0 mg/kg/injection, schedule: Q01DX005 (ip), vehicle: saline
[14] = dose: 200.0 mg/kg/injection, schedule: Q01DX005 (ip), vehicle: saline
[15] = dose: 60.0 mg/kg/injection, schedule: Q01DX005 (ip), vehicle: saline with Tween-80
[16] = dose: 120.0 mg/kg/injection, schedule: Q01DX005 (ip), vehicle: saline with Tween-80
[17] = dose: 240.0 mg/kg/injection, schedule: Q01DX005 (ip), vehicle: saline with Tween-80
[18] = dose: 50.0 mg/kg/injection, schedule: Q01DX009 (ip), vehicle: Klucel (hydroxypropylcellulose) (HPC)
[19] = dose: 100.0 mg/kg/injection, schedule: Q01DX009 (ip), vehicle: Klucel (hydroxypropylcellulose) (HPC)
[20] = dose: 200.0 mg/kg/injection, schedule: Q01DX005 (ip), vehicle: saline with Tween-80

Measured: T/C

COC(=O)C(Cl)Cc1cnc[nH]1 (stereo not given)
inactive: [1] 92 % of control | [2] 98 % of control | [3] 92 % of control

O=C(N/C(=C\c1ccccc1)C(=O)N1CCN(Cc2ccccc2)CC1)c1ccccc1
inactive: [4] 89 % of control | [5] 88 % of control

CCOc1ccccc1N=Nc1c(C)nn(C(=S)SC)c1OCC
inactive: dose: 30.0 mg/kg/injection, schedule: Q01DX005 (ip), vehicle: Klucel + Tween-80 91 % of control | [6] 88 % of control and 95 % of control | [7] 86 % of control

Clc1cc(Cl)nc(N2CC2)n1
inactive: dose: 5.0 mg/kg/injection, schedule: Q01DX009 (ip), vehicle: saline with Tween-80 116 % of control | dose: 5.0 mg/kg/injection, schedule: Q04DX003 (ip), vehicle: saline with Tween-80 100 % of control | dose: 10.0 mg/kg/injection, schedule: Q01DX009 (ip), vehicle: saline with Tween-80 100 % of control | dose: 10.0 mg/kg/injection, schedule: Q04DX003 (ip), vehicle: saline with Tween-80 104 % of control | dose: 20.0 mg/kg/injection, schedule: Q04DX003 (ip), vehicle: saline with Tween-80 118 % of control

Nc1nc(N)c2cc(N3CCCC3c3ccc(Cl)cc3)ccc2n1 (stereo not given)
inactive: dose: 1.56 mg/kg/injection, schedule: Q01DX005 (ip), vehicle: Klucel (hydroxypropylcellulose) (HPC) 98 % of control | dose: 1.56 mg/kg/injection, schedule: Q01DX009 (ip), vehicle: Klucel (hydroxypropylcellulose) (HPC) 100 % of control and 101 % of control | dose: 3.12 mg/kg/injection, schedule: Q01DX005 (ip), vehicle: Klucel (hydroxypropylcellulose) (HPC) 98 % of control | dose: 3.12 mg/kg/injection, schedule: Q01DX009 (ip), vehicle: Klucel (hydroxypropylcellulose) (HPC) 101 % of control and 118 % of control | dose: 6.25 mg/kg/injection, schedule: Q01DX005 (ip), vehicle: Klucel (hydroxypropylcellulose) (HPC) 96 % of control | dose: 12.5 mg/kg/injection, schedule: Q01DX005 (ip), vehicle: Klucel (hydroxypropylcellulose) (HPC) 108 % of control

COC(=O)C1C(c2ccccc2)C1(C#N)C#N (stereo not given)
inactive: [8] 96 % of control | [9] 106 % of control | [10] 98 % of control

C1CCN(P(N2CCCCC2)N2CCCCC2)CC1
inactive: dose: 25.0 mg/kg/injection, schedule: Q04DX003 (ip), vehicle: saline with Tween-80 100 % of control | dose: 50.0 mg/kg/injection, schedule: Q04DX003 (ip), vehicle: saline with Tween-80 100 % of control | [11] 102 % of control and 104 % of control

O=C(N/N=C/C(O)C(O)C(O)C(O)C(=O)O)c1ccncc1 (stereo not given)
inactive: [12] 99 % of control | [13] 93 % of control | [14] 100 % of control

C1CCC2CC3NC3CC2C1 (stereo not given)
inactive: [1] 101 % of control | [2] 105 % of control | [3] 101 % of control

CCc1cccc(C)c1NC(=O)C(=O)CC(=O)CS(=O)(=O)c1ccc(C)cc1
inactive: [15] 109 % of control | [16] 111 % of control | [17] 104 % of control

NC(=O)NC1CC2CCC1C2 (stereo not given)
inactive: [12] 101 % of control | [13] 101 % of control | [14] 105 % of control

COc1ccc2nccc(C(C)=O)c2c1
inactive: dose: 50.0 mg/kg/injection, schedule: Q01DX005 (ip), vehicle: Klucel (hydroxypropylcellulose) (HPC) 100 % of control | dose: 100.0 mg/kg/injection, schedule: Q01DX005 (ip), vehicle: Klucel (hydroxypropylcellulose) (HPC) 98 % of control | dose: 200.0 mg/kg/injection, schedule: Q01DX005 (ip), vehicle: Klucel (hydroxypropylcellulose) (HPC) 106 % of control

C=CC(=O)NC(C)(C)CC(=O)O
inactive: [1] 100 % of control | [2] 100 % of control | [3] 99 % of control

CC12COC(=O)CC1CCC1C2CCC2(C)C1CCC2(C)O (stereo not given)
inactive: [11] 95 % of control | dose: 200.0 mg/kg/injection, schedule: Q04DX003 (ip), vehicle: saline with Tween-80 104 % of control

O=c1c(N=Nc2ccc(Br)cc2)c(O)n(-c2ccccc2Cl)c(=S)n1-c1ccccc1
inactive: dose: 50.0 mg/kg/injection, schedule: Q01DX001 (ip), vehicle: Klucel (hydroxypropylcellulose) (HPC) 94 % of control | dose: 100.0 mg/kg/injection, schedule: Q01DX001 (ip), vehicle: Klucel (hydroxypropylcellulose) (HPC) 98 % of control | dose: 200.0 mg/kg/injection, schedule: Q01DX001 (ip), vehicle: Klucel (hydroxypropylcellulose) (HPC) 94 % of control

COC(=O)c1cc(NC(=O)NNC(=O)c2ccncc2)cc(C(=O)OC)c1
inactive: dose: 12.5 mg/kg/injection, schedule: Q01DX009 (ip), vehicle: Klucel (hydroxypropylcellulose) (HPC) 100 % of control | dose: 25.0 mg/kg/injection, schedule: Q01DX009 (ip), vehicle: Klucel (hydroxypropylcellulose) (HPC) 98 % of control | [18] 116 % of control and 98 % of control | [19] 90 % of control

CCCc1[nH]n(-c2ccccc2)c(=O)c1N=Nc1ccc(Cl)cc1
inactive: [1] 96 % of control | [2] 100 % of control | [3] 101 % of control

CSC(=Nc1cccnc1)NC#N
inactive: [18] 96 % of control | [19] 93 % of control | dose: 200.0 mg/kg/injection, schedule: Q01DX009 (ip), vehicle: Klucel (hydroxypropylcellulose) (HPC) 92 % of control

C1CCCCCc2c(-c3noc4c3CCCCCCCCCC4)noc2CCCC1
inactive: [6] 105 % of control | [7] 97 % of control | dose: 240.0 mg/kg/injection, schedule: Q01DX005 (ip), vehicle: Klucel + Tween-80 100 % of control

ON(C(=S)Nc1ccc(Cl)cc1)c1ccccc1
inactive: dose: 12.5 mg/kg/injection, schedule: Q01DX005 (ip), vehicle: saline with Tween-80 104 % of control | dose: 25.0 mg/kg/injection, schedule: Q01DX005 (ip), vehicle: saline with Tween-80 100 % of control | [4] 95 % of control and 98 % of control | [5] 94 % of control | [20] 97 % of control

CC(=O)O/C(C)=C1\CCn2c1nc1ccccc1c2=O
inactive: [15] 104 % of control | [16] 107 % of control | [17] 101 % of control

O=c1c2cc(OCO)ccc2[nH]c2cc3c(=O)c4cc(OCO)ccc4[nH]c3cc12
inactive: [1] 102 % of control | [2] 99 % of control | [3] 93 % of control

CC(=O)N1NC(=O)c2c([nH]c3ccccc23)C1c1ccccc1 (stereo not given)
inactive: dose: 100.0 mg/kg/injection, schedule: Q04DX002 (ip), vehicle: Klucel (hydroxypropylcellulose) (HPC) 101 % of control | dose: 200.0 mg/kg/injection, schedule: Q04DX002 (ip), vehicle: Klucel (hydroxypropylcellulose) (HPC) 106 % of control | dose: 400.0 mg/kg/injection, schedule: Q04DX002 (ip), vehicle: Klucel (hydroxypropylcellulose) (HPC) 101 % of control

CC(C)N1COC2Cc3ccccc3CC21 (stereo not given)
inactive: dose: 6.25 mg/kg/injection, schedule: Q01DX005 (ip), vehicle: saline 99 % of control | dose: 12.5 mg/kg/injection, schedule: Q01DX005 (ip), vehicle: saline 101 % of control | dose: 25.0 mg/kg/injection, schedule: Q01DX005 (ip), vehicle: saline 101 % of control and 110 % of control | [12] 117 % of control and 120 % of control and 121 % of control

CC1=NN(C(=O)c2ccccn2)C(c2ccccc2)/C1=N\Nc1ccc(S(N)(=O)=O)cc1 (stereo not given)
inactive: [8] 87 % of control | [9] 93 % of control | [10] 87 % of control

C1CN1Sc1nc(SN2CC2)nc(SN2CC2)n1
inactive: [8] 100 % of control | [9] 97 % of control

CC(=O)N(C)c1ccc(Nc2ccc(Nc3ccc(N(C)C(C)=O)cc3)c3c2C(=O)c2ccccc2C3=O)cc1
inactive: [4] 100 % of control | [5] 100 % of control | [20] 99 % of control

CC(=O)Nc1ccc(CC#N)cc1
inactive: dose: 5.0 mg/kg/injection, schedule: Q01DX009 (ip), vehicle: saline sonified 100 % of control | dose: 10.0 mg/kg/injection, schedule: Q01DX009 (ip), vehicle: saline sonified 100 % of control | dose: 20.0 mg/kg/injection, schedule: Q01DX009 (ip), vehicle: saline sonified 113 % of control
